Laboratory results: patent US20250064733A1, “USE OF PEG-BASED INTERPOLYMER COMPLEXES FOR IMPROVED SOLUBILIZATION F BCS CLASS II DRUGS” (Dow Global Technologies LLC, priority 2022, published 2025)

Test: Apparent aqueous solubility of drug in 1% polymer solution (30 min standing, centrifugation, HPLC of supernatant)
Format: physicochemical
Conditions: water without polymer; reference value for the increase; read-out: aqueous probucol solubility
Method: The following materials are used. The polyacrylic acid (PAA) has a molecular weight of about 1800, the polyethylene glycol used has either a molecular weight of 4000 or 8000 (as indicated in Table I below). The API chosen is either Probucol (>98% purity) or Ketoprofen (>98% purity). Each polymer or polymer combination shown in Table 1 is added to water in an amount to form 1% polymer solutions. Concentrated API solutions in methanol are prepared by adding 0.2 grams of drug to 10 ml of methanol (20 g/L of drug in methanol).
For each example in Table 1, 912 μl of the indicated polymer solution is transferred into individual vials. Then, 48 μl of drug solution in methanol is added to the polymer solution. These mixtures are agitated via three cycles of aspiration and dispensing using the EVO 200 pipettes. […]
The solubilized drug concentration in each taken aliquot was determined by reverse phase high-performance liquid chromatography (HPLC) analysis. […]
The drug concentration is determined from the measured elution profile by using a linear calibration curve for the respective drug, which was generated by determining the least squares fit of a straight line that described the relation between the concentration of four solutions of known concentrations (about 250, 500, 750, and 1000 mg/L) and the respective peak area integral after injection of 2 μL of each drug in methanol. […]

solubility at 30 min: 0.042 µg/mL
SMILES: CC(C)(Sc1cc(C(C)(C)C)c(O)c(C(C)(C)C)c1)Sc1cc(C(C)(C)C)c(O)c(C(C)(C)C)c1 [control, Probucol]
